molecular target: T1, renin (Homo sapiens, UniProt P00797); experiment: Inhibition of human plasma renin activity (angiotensin I formation, RIA); format: biochemical; details: endogenous renin and angiotensinogen, pH 6.0, 37° C, 90 minutes, RIA of Ang I
T1 construct: endogenous renin and angiotensinogen in plasma; from tissue; host or cells: pooled human plasma (EDTA) from male volunteers
T1 sequence (P00797 67-406): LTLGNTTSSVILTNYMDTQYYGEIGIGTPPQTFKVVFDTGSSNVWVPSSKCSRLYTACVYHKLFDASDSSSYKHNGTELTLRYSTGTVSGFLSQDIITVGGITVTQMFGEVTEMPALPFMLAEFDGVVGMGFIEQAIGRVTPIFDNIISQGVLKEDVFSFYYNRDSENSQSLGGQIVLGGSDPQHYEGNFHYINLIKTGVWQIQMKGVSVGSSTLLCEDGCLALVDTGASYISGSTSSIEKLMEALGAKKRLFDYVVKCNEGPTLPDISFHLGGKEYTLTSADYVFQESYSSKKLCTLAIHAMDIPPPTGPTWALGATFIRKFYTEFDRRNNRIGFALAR
Experimental: Human plasma was collected from male volunteers pretreated with no drugs and used as a pool. Disodium salt of ethylenediaminetetraacetic acid (EDTA) was used as the anticoagulant. Plasma renin activity was measured as the rate of angiotensin I (Ang I) formation after incubation (37° C) of the endogenous renin and angiotensinogen in plasma at pH 6.0. The incubation mixture contained 250 μl of plasma, 5 μl of (phenylmethyl)sulfonyl fluoride, 30 μl of buffer (sodium, potassium-phosphate, pH 6.0), and 15 μl of an appropriate concentration of test compound in 50% ethyl alcohol-water vehicle. The Ang I formed after 90 minutes of incubation was measured by radioimmunoassay (RIA) which was carried out with a commercial kit, RENCTK 100 (manufactured by Commissariat A L'energic Atomique). Samples were incubated in duplicate and each tube was measured in duplicate in the RIA. Percentage inhibition of plasma renin activity was calculated by comparing the amount of Ang I produced with and without a test compound. The concentration of test compound that inhibited plasma renin activity by 50% (IC50) was determined by Probit method.

Structure (SMILES)	IC50 [nM]
CC(C)CC[C@H](O)[C@H](CC1CCCCC1)NC(=O)[C@H](Cc1c[nH]cn1)NC(=O)[C@H](Cc1ccccc1)OC(=O)N1CCOCC1 [(1)]	19
CC(C)CC[C@H](O)[C@H](CC1CCCCC1)NC(=O)[C@H](Cc1c[nH]cn1)N(C)C(=O)[C@H](Cc1ccccc1)OC(=O)N1CCOCC1 [(2)]	80
COC(=O)CN(C)C(=O)O[C@@H](Cc1ccccc1)C(=O)N(C)[C@@H](Cc1c[nH]cn1)C(=O)N[C@@H](CC1CCCCC1)[C@@H](O)CCC(C)C [(3)]	33
COC(=O)[C@H]1CCCN1C(=O)O[C@@H](Cc1ccccc1)C(=O)N(C)[C@@H](Cc1c[nH]cn1)C(=O)N[C@@H](CC1CCCCC1)[C@@H](O)CCC(C)C [(4)]	13
CC(C)CC[C@H](O)[C@H](CC1CCCCC1)NC(=O)[C@H](Cc1c[nH]cn1)N(C)C(=O)[C@H](Cc1ccccc1)OC(=O)N(C)CCC(=O)N(C)C [(6)]	41
CC(C)CC[C@H](O)[C@H](CC1CCCCC1)NC(=O)[C@H](Cc1c[nH]cn1)N(C)C(=O)[C@H](Cc1ccccc1)OC(=O)N(C)CC(=O)N(C)C [(7)]	40
CC(C)CC[C@H](O)[C@H](CC1CCCCC1)NC(=O)[C@H](Cc1c[nH]cn1)N(C)C(=O)[C@H](Cc1ccccc1)OC(=O)N(C)CC(=O)NCc1ccncc1 [(8)]	46
CC(C)CC[C@H](O)[C@H](CC1CCCCC1)NC(=O)[C@H](Cc1c[nH]cn1)N(C)C(=O)[C@H](Cc1ccccc1)OC(=O)N1CCC[C@@H]1C(=O)N(C)C [(9)]	30
CC(C)CC[C@H](O)[C@H](CC1CCCCC1)NC(=O)[C@H](Cc1c[nH]cn1)N(C)C(=O)[C@H](Cc1ccccc1)OC(=O)N1CC(=O)N2CCC[C@H]2C1 [(10)]	21
CC(C)CC[C@H](O)[C@H](CC1CCCCC1)NC(=O)[C@H](Cc1c[nH]cn1)N(C)C(=O)[C@H](Cc1ccccc1)OC(=O)N1CCN(C)C(=O)C1 [(11)]	19
CC(C)CC[C@H](O)[C@H](CC1CCCCC1)NC(=O)[C@H](Cc1c[nH]cn1)N(C)C(=O)[C@H](Cc1ccccc1)OC(=O)N1CCNC(=O)C1 [(12)]	29
CC(C)CC[C@H](O)[C@H](CC1CCCCC1)NC(=O)[C@H](Cc1c[nH]cn1)N(C)C(=O)[C@H](Cc1ccccc1)OC(=O)N(C)CC(=O)OCC(C)C [(13)]	34
CC(C)CC[C@H](O)[C@H](CC1CCCCC1)NC(=O)[C@H](Cc1c[nH]cn1)N(C)C(=O)[C@H](Cc1ccccc1)OC(=O)N(C)CC(=O)OCCc1ccccc1 [(14)]	48
CC(=O)COC(=O)CN(C)C(=O)O[C@@H](Cc1ccccc1)C(=O)N(C)[C@@H](Cc1c[nH]cn1)C(=O)N[C@@H](CC1CCCCC1)[C@@H](O)CCC(C)C [(15)]	33
CCOC(=O)CNC(=O)CCN(C)C(=O)O[C@@H](Cc1ccccc1)C(=O)N(C)[C@@H](Cc1c[nH]cn1)C(=O)N[C@@H](CC1CCCCC1)[C@@H](O)CCC(C)C [(16)]	38
CC(C)CC[C@H](O)[C@H](CC1CCCCC1)NC(=O)[C@H](Cc1c[nH]cn1)N(C)C(=O)[C@H](Cc1ccccc1)OC(=O)N(C)CCC(=O)NCc1ccccn1 [(17)]	33
CC(C)CC[C@H](O)[C@H](CC1CCCCC1)NC(=O)[C@H](Cc1c[nH]cn1)N(C)C(=O)[C@H](Cc1ccccc1)OC(=O)N(C)CCC(=O)N1CCSCC1 [(18)]	30
CC(C)CC[C@H](O)[C@H](CC1CCCCC1)NC(=O)[C@H](Cc1c[nH]cn1)NC(=O)[C@H](Cc1ccccc1)OC(=O)N(C)CCC(=O)N1CCOCC1 [(19)]	4.8
CC(C)CC[C@H](O)[C@H](CC1CCCCC1)NC(=O)[C@H](Cc1c[nH]cn1)N(C)C(=O)[C@H](Cc1ccccc1)OC(=O)N(C)N(C)C(=O)OCC(C)C [(20)]	70

Structure (SMILES)	IC50 [nM]
CC(C)CC[C@H](O)[C@H](CC1CCCCC1)NC(=O)[C@H](Cc1c[nH]cn1)N(C)C(=O)[C@H](Cc1ccccc1)OC(=O)N(C)N(C)C(=O)NC(C)C [(21)]	43
CC(C)CC[C@H](O)[C@H](CC1CCCCC1)NC(=O)[C@H](Cc1c[nH]cn1)N(C)C(=O)[C@H](Cc1ccccc1)OC(=O)N1CCCN1C(=O)NC(C)C [(22)]	63
CC(C)CC[C@H](O)[C@H](CC1CCCCC1)NC(=O)[C@H](Cc1c[nH]cn1)N(C)C(=O)[C@H](Cc1ccccc1)OC(=O)N(C)CCN(C)C(=O)CC(C)C [(25)]	14
CC(C)CC[C@H](O)[C@H](CC1CCCCC1)NC(=O)[C@H](Cc1c[nH]cn1)N(C)C(=O)[C@H](Cc1ccccc1)OC(=O)N(C)CCC(=O)N(C)c1ccccc1 [(26)]	24
CC(C)CC[C@H](O)[C@H](CC1CCCCC1)NC(=O)[C@H](Cc1c[nH]cn1)N(C)C(=O)[C@H](Cc1ccccc1)OC(=O)N(C)CCC(=O)N(C)CC(C)C [(27)]	46
CC(C)CC[C@H](O)[C@H](CC1CCCCC1)NC(=O)[C@H](Cc1c[nH]cn1)N(C)C(=O)[C@H](Cc1ccccc1)OC(=O)N1CCCC(=O)C1 [(28)]	44
CC(C)CC[C@H](O)[C@H](CC1CCCCC1)NC(=O)[C@H](Cc1c[nH]cn1)N(C)C(=O)[C@H](Cc1ccccc1)OC(=O)N(C)CCCCC(=O)N(C)C(C)C [(29)]	16
CC(C)CC[C@H](O)[C@H](CC1CCCCC1)NC(=O)[C@H](Cc1c[nH]cn1)N(C)C(=O)[C@H](Cc1ccccc1)OC(=O)N(C)CCCCC(=O)NC(C)C [(30)]	6.4
CC(C)CC[C@H](O)[C@H](CC1CCCCC1)NC(=O)[C@H](Cc1c[nH]cn1)N(C)C(=O)[C@H](Cc1ccccc1)OC(=O)N(C)CCCN(C)C(=O)N1CCOCC1 [(31)]	13
CC(C)CC[C@H](O)[C@H](CC1CCCCC1)NC(=O)[C@H](Cc1c[nH]cn1)N(C)C(=O)[C@H](Cc1ccccc1)OC(=O)N(C)CCCC(=O)N1CCOCC1 [(32)]	15
CC(C)CC[C@H](O)[C@H](CC1CCCCC1)NC(=O)[C@H](Cc1c[nH]cn1)N(C)C(=O)[C@H](Cc1ccccc1)OC(=O)N(C)CCCC(=O)N(C)C(C)C [(33)]	17
CC(C)CC[C@H](O)[C@H](CC1CCCCC1)NC(=O)[C@H](Cc1c[nH]cn1)N(C)C(=O)[C@H](Cc1ccccc1)OC(=O)N(C)CCCCN(C)C(=O)N1CCOCC1 [(34)]	7.5
CC(C)CC[C@H](O)[C@H](CC1CCCCC1)NC(=O)[C@H](Cc1c[nH]cn1)N(C)C(=O)[C@H](Cc1ccccc1)OC(=O)N(C)CCCCC(=O)N1CCOCC1 [(35)]	5.3
CC(C)CC[C@H](O)[C@H](CC1CCCCC1)NC(=O)[C@H](Cc1c[nH]cn1)NC(=O)[C@H](Cc1ccccc1)OC(=O)N(C)N(C)C(=O)N1CCOCC1 [(36)]	9.8
CC(C)CC[C@H](O)[C@H](CC1CCCCC1)NC(=O)[C@H](Cc1c[nH]cn1)N(C)C(=O)[C@H](Cc1ccccc1)OC(=O)N(C)CCC(=O)N(C)CCc1ccccn1 [(37)]	38
CC(C)CC[C@H](O)[C@H](CC1CCCCC1)NC(=O)[C@H](Cc1c[nH]cn1)N(C)C(=O)[C@H](Cc1ccccc1)OC(=O)N(C)CCC(=O)N1CC=CCC1 [(38)]	44
CC(C)CC[C@H](O)[C@H](CC1CCCCC1)NC(=O)[C@H](Cc1c[nH]cn1)N(C)C(=O)[C@H](Cc1ccccc1)OC(=O)N(C)CCC(=O)NC(C)C [(39)]	37
CC(C)CC[C@H](O)[C@H](CC1CCCCC1)NC(=O)[C@H](Cc1c[nH]cn1)N(C)C(=O)[C@H](Cc1ccccc1)OC(=O)N(C)CCS(=O)(=O)C(C)C [(40)]	57

Source: US4921855A, “New Histidyl amino acid derivatives, and pharmaceutical composition comprising the same” (Fujisawa Pharmaceutical Co., Ltd., priority 1987, dated 1990)
